Data from publication PMC12812009, “Optimization of 4‐Amino‐2‐Pyridone Inhibitors of Proprotein Convertase Subtilisin/Kexin Type 9: Integrating Structure–Activity and Structure–Metabolism Relationships” (Chemmedchem, 2025).

Experiments:
secreted PCSK9 [1] = assay: PCSK9 secretion in culture medium, ELISA on HepG2 supernatants; format: cell-based, human; conditions: for IC50: HepG2, Table S2, ELISA, non-cytotoxic concentrations, read-out: IC50 ± SD on PCSK9 secreted by HepG2; for decrease of secreted PCSK9 vs. basal: given as decrease
Procedure: Next, the levels of secreted PCSK9 were quantified by ELISA assay (Figure 5) only on supernatants collected from cells treated with noncytotoxic concentrations of each compound, as reported in Table 1. Simvastatin (Simva) at 20 and 40 μM and berberine (BBR) at 10 μM were included as controls. As described in the literature, simvastatin induces PCSK9 expression as a compensatory mechanism in response to its cholesterol‐lowering effects, being a pharmacological competitor for HMG‐CoA reductase, the rate‐limiting enzyme of the cholesterol biosynthetic pathway.^[ [29] ^] In contrast, BBR, a natural compound, reduces the expression of PCSK9 levels through transcriptional inhibition, thus increasing the LDLR availability on plasma membrane.^[ [30] ^] As additional and distinct mechanism to the latter, BBR is also able to stabilize the transcript of LDLR, thus increasing its half‐life.^[ [31] ^] As expected, cells stimulated with simvastatin released more PCSK9 into the culture medium compared to unstimulated cells, with a statistically significant concentration‐dependent effect (+73% at 20 μM, p < 0.01; +200% at 40 μM, p < 0.0001), while BBR at 10 μM decreased PCSK9 levels in the medium more than 50% (p < 0.0001 vs. basal) (Figure 5).^[ [32] ^] The amount of PCSK9 secreted into the culture media was measured with an appropriate ELISA kit (R&D System, DY3888 and DY008B2) on the supernatants collected during the MTT assay. Every experimental condition was run in duplicate and the average PCSK9 secretion and standard deviation was calculated. A 4PL regression analysis was used to interpolate unknowns with the standard curve using GraphPad Prism v10.2, according to manufacturers’ instructions. The data were normalized onto the corresponding cell viability, and IC50 was then calculated using GraphPad Prism v10.2.

PCSK9 protein = assay: Western blot of PCSK9 protein levels in HepG2 cells; format: cell-based, human; conditions: 10 µM, HepG2, 24 h
Procedure: (§1) The third step of our functional assay was focused on the most promising compounds from the previous step (6b and 7), looking at the PCSK9 and LDLR protein expressions in HepG2 cells treated with increasing concentrations of the compounds (2.5–5–10 µM). This analysis, conducted in comparison with 5c using a Western blot assay, aimed to provide a more comprehensive understanding of the intracellular activity and efficacy of these novel PCSK9i , further supporting their potential for preclinical development. […] Importantly, LDLR protein levels were increased by compound 7 only at 10 µM (+39%, p < 0.01, Figure 6B) as compared to basal condition.
(§2) HepG2 cells were seeded at the cellular density of 500,000 cells/well in a 6‐well tray, in 2 mL of complete medium, and incubated as described above. The day after, treatments were prepared in starving medium. The cells were washed once with PBS and then incubated with media containing treatments. […] Total protein content was measured through bicinchoninic acid (BCA) assay (Euroclone, EMP014250), according to manufacturer's instructions. […] Immunobands were detected with Imager Alliance Q9 ATOM Supreme by UVITEC (Cambridge, UK) after 5 min of membranes incubation in the dark with ECL Star solution (EuroClone, EMP001005). Every experimental condition was run in triplicate and the average cell viability and standard deviation was calculated.

LDLR protein = assay: Western blot of LDLR protein levels in HepG2 cells; format: cell-based, human; conditions: HepG2, 24 h
Procedure: as §1, §2

circulating PCSK9 = system: circulating PCSK9; design: method as in PMID 38160616; conditions: mice; cited from earlier work
secreted PCSK9 [2] = system: secreted PCSK9; design: method as in PMID 38160616; conditions: 5 µM; cited from earlier work
[3] = design: method as in PMID 38160616; conditions: seven days of daily subcutaneous administration; cited from earlier work
[4] = Homo sapiens, 10 μM, HepG2, 24 h, read-out: secreted PCSK9 change vs. basal

Compound `Cc1cc(NCc2ccc(C(F)(F)F)cc2)c(Br)c(=O)n1Cc1ccc(C(F)(F)F)cc1` [Compound 6b, 3‐Bromo‐6‐Methyl‐1‐(4‐(Trifluoromethyl)Benzyl)‐4‐((4‐(Trifluoromethyl)Benzyl)Amino)pyridin‐2(1H)‐One] has an IC50 (secreted PCSK9 [1]; Homo sapiens) of 2600 ± 1610 nM, an inhibition at 5 µM (secreted PCSK9 [1]; Homo sapiens, 5 μM, HepG2, 24 h, read-out: secreted PCSK9 change vs. basal) of 75% and an inhibition at 10 µM (secreted PCSK9 [1]; [4]) of 90%. For the same compound, the “maximal reduction of PCSK9 protein levels vs. basal” value (PCSK9 protein) was 93% and the “LDLR expression (in words)” value (LDLR protein; 2.5–5–10 µM) was “did not modulate its expression at all concentrations tested”.

In the case of `Cc1cc2c(sc(=N)n2Cc2ccc(C(F)(F)F)cc2)c(=O)n1Cc1ccc(C(F)(F)F)cc1` [Compound 7, 2‐Imino‐6‐Methyl‐1,5‐Bis(4‐(Trifluoromethyl)benzyl)‐1,2‐Dihydrothiazolo[5,4‐c]pyridin‐4(5H)‐One], the “decrease of secreted PCSK9 vs. basal” value (secreted PCSK9 [1]; 10 μM, HepG2, 24 h) is reported as 74%, the “decrease of secreted PCSK9 vs. basal” value (secreted PCSK9 [1]; 25 μM, HepG2, 24 h) is reported as 90% and the IC50 (secreted PCSK9 [1]; Homo sapiens) is reported as 4100 ± 360 nM. For the same compound, the inhibition at 10 µM (secreted PCSK9 [1]; [4]) was 74%, the “PCSK9 protein level change vs. basal” value (PCSK9 protein) was −42% and the “LDLR protein level change vs. basal” value (LDLR protein; 10 µM) was “+39%”.

In the case of `Cc1cc(NCc2ccc(C(F)(F)F)cc2)cc(=O)n1Cc1ccc(C(F)(F)F)cc1` [Compound 5c], the IC50 (secreted PCSK9 [1]; Homo sapiens) is listed as 1700 ± 670 nM, the “circulating PCSK9 levels in vivo (in words)” value (circulating PCSK9) is listed as “did not demonstrate a significant reduction in circulating PCSK9 levels” and the “PCSK9 secretion from HepG2 cells (in words)” value (secreted PCSK9 [2]) is listed as “effectively reduced PCSK9 secretion”. The “tolerability in mice (in words)” value [3] was “well tolerated”.
